# Source: US10934274B2, “Quinoline derivatives as TAM RTK inhibitors” (Qurient Co., Ltd., priority 2015, dated 2021)
# How the values were obtained:
# [1] = system: Axl phosphorylation in transiently transfected HEK293T cells; test: Cellular Axl phosphorylation assay; format: cell-based; conditions: Homo sapiens, HEK-293T; HEK293T cells transfected with Axl, 1 hour compound treatment, Phospho-Axl vs Total-Axl
# Text: Cell AXL Inhibition Assay Principle
# The assay is based on the measurement of the relative amounts of Total-Axl and Phosphorylated-Axl in whole cell lysates of transiently transfected HEK293T cells. This assay is based on application of the Mesoscale western blot and subsequent electro-chemiluminescence detection. Overexpression of Axl-RTK (Receptor tyrosine kinase) by transfection leads to an increase in Axl-trans-autophosphorylation events. Upon compound treatment, the correlation of the measured values of Phosphorylated-Axl and Total Axl indicate the potential of the tested compound to inhibit Axl-phosphorylation at the given compound concentration.
# Cell AXL Inhibition Assay Protocol
# HEK293T cells (2.5×10^4/well) were plated in a 96 well plate and cells were transfected with pcDNA_DEST_40 Axl or pcDNA_DEST_40 by Superfact reagent (Qiagen. Co. Ltd.). After overnight, the transfection reagent of each well was removed from cells and replaced by fresh prewarmed medium. On the following day, cells were treated with the respective test compound which was diluted by the same method, as in the Axl binding assay using DMSO, for 1 hour
# After incubation with the test compounds, cells in the well of the plate were lysed using Tris lysis buffer. The lysate was transferred to two plates (total-Axl and phosphor-Axl) Mesoscale high bind plates and incubated for two hours at room temperature. Afterwards the lysates were removed from the plates and the plates were blocked using Blocking buffer. Subsequently Total-Axl antibody (H-124, Santa Cruz) was transferred to one Mesoscale high bind plate, and Phospho-Axl antibody (AF2228, R&D) to the other plate. After 1 h incubation, Sulpho-Tag antibody (goat anti-rabbit, Mesoscale) was added and again incubated for 1 hour. For the measurement, 2×MSD read buffer was added to each well and the plates were analyzed with a Mesoscale Sector Imager 2400. IC50 (half the maximal inhibitory concentration) was determined relative to between the vehicle (DMSO) control group and minimum control group as transfection of the control vector (pcDNA_DEST_40).
# The results after this assay are shown in table 3 for selected compounds.
# [2] = target: T1, Met (Homo sapiens, UniProt P08581); test: LanthaScreen Eu kinase binding assay, Met; conditions: Tracer 236, read-out: cMet kinase binding activity (Kd)
# T1 construct: purchased Life Technologies
# [3] = target: T2, Mer (Homo sapiens, UniProt Q12866); test: LanthaScreen Eu kinase binding assay, Mer; conditions: Tracer 236
# T2 construct: purchased Life Technologies
# T2 sequence (Q12866 21-999): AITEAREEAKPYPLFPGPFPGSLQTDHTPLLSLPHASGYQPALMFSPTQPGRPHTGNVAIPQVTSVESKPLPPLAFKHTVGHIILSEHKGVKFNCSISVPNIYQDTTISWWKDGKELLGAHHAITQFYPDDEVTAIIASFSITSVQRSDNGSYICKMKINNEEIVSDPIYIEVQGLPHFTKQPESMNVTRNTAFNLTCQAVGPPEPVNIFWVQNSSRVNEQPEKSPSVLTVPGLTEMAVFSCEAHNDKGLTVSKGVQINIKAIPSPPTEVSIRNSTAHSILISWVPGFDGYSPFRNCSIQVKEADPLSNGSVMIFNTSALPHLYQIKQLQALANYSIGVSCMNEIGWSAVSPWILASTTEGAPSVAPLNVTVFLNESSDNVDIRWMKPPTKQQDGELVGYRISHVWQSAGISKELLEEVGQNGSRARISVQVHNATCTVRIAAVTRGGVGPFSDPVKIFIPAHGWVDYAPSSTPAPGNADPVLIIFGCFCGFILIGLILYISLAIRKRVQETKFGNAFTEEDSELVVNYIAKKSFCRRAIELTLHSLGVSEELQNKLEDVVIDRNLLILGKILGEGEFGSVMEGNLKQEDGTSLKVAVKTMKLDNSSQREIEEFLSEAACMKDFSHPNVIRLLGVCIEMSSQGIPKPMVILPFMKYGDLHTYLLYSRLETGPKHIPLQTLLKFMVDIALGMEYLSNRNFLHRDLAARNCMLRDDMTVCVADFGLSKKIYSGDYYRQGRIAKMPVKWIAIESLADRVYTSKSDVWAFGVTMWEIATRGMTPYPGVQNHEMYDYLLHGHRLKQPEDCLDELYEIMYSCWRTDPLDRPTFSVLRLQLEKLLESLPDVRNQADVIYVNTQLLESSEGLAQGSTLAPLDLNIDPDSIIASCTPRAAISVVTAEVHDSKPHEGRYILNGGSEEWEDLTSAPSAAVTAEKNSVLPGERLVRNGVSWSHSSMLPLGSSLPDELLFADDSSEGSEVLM
# [4] = target: T3, TYRO3 (Homo sapiens, UniProt Q06418); test: LanthaScreen Eu kinase binding assay, TYRO3; conditions: Tracer 236
# T3 construct: purchased Life Technologies
# T3 sequence (Q06418 41-890): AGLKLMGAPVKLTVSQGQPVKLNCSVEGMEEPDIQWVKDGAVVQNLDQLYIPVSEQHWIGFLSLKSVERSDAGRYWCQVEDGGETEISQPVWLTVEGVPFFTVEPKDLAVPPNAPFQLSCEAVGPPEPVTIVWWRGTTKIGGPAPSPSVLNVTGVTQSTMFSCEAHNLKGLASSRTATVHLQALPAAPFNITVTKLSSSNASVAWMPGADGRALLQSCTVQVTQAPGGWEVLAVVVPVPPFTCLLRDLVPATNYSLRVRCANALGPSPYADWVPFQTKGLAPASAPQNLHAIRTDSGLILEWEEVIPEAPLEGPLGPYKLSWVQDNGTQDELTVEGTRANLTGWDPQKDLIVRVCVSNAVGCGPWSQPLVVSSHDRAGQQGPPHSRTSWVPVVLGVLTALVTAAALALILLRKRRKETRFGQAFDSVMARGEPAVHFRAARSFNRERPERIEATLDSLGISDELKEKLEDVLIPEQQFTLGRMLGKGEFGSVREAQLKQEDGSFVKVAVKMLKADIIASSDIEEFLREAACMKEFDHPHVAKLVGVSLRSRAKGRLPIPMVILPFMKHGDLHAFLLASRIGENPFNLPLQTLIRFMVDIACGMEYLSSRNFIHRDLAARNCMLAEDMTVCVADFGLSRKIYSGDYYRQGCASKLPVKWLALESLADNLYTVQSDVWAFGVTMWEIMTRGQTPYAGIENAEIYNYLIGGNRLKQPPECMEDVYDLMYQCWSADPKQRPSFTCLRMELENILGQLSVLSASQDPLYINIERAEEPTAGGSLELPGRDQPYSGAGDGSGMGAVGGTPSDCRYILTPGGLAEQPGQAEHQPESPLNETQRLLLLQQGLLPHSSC
# [5] = target: T4, Axl (Homo sapiens, UniProt P30530); test: LanthaScreen Eu kinase binding assay, Axl; conditions: Tracer 236
# T4 construct: purchased Life Technologies
# T4 sequence (P30530 26-894): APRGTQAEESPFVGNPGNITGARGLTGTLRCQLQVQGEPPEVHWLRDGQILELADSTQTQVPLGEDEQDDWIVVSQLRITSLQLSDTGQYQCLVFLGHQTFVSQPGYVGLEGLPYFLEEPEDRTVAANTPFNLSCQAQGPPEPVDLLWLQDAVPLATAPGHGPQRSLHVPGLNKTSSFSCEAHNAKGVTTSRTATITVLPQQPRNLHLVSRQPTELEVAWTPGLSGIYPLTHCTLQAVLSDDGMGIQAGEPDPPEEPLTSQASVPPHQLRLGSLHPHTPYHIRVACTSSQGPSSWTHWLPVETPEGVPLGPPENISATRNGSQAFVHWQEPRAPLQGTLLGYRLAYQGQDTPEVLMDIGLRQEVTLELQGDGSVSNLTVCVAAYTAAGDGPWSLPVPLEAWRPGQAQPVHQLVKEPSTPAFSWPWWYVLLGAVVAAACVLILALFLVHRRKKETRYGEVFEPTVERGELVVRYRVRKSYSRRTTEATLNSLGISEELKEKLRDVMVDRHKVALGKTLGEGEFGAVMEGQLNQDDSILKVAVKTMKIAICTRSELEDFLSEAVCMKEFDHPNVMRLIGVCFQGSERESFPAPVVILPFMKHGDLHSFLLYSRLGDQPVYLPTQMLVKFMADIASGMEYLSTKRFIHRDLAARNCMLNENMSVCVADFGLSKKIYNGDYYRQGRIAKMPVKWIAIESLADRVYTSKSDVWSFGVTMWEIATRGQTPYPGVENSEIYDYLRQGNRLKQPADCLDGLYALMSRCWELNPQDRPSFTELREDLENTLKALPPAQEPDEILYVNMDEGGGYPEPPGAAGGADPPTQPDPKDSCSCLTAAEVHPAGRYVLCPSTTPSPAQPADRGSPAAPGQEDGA
# T1 sequence (P08581 25-1390): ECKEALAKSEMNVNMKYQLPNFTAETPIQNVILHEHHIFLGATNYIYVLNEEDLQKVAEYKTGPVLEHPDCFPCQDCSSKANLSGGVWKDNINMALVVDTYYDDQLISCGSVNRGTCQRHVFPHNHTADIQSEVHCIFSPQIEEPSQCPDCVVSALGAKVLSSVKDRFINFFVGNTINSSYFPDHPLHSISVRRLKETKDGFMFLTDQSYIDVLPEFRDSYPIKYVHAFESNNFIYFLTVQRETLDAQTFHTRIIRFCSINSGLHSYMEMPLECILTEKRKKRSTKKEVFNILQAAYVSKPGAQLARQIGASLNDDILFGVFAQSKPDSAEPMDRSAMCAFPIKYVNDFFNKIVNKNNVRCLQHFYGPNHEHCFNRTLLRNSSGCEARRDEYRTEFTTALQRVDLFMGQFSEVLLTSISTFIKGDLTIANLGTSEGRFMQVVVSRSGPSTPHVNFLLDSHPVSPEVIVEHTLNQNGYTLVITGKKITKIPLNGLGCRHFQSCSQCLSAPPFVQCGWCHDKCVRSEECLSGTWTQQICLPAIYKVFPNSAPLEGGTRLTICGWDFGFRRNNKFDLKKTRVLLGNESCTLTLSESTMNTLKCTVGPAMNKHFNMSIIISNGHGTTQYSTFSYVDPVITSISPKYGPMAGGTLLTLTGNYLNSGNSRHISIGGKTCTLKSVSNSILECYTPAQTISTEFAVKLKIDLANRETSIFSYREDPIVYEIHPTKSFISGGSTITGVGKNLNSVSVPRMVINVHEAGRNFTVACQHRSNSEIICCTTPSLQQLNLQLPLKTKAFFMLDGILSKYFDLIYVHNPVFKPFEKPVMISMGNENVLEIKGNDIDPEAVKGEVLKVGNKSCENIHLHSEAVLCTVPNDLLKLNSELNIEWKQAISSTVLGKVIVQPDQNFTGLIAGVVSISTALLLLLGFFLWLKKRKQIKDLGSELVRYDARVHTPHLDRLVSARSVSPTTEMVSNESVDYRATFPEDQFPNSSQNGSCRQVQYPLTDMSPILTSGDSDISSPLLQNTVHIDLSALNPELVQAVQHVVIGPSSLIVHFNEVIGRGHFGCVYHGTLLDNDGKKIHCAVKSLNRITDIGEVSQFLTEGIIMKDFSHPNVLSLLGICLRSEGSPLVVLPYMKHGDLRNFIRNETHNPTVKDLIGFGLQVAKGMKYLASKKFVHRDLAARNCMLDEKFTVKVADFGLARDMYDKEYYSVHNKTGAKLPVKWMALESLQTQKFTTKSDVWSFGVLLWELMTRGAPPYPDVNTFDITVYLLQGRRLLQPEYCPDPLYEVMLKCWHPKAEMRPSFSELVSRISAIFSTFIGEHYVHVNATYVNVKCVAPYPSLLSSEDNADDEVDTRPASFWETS
Kd [2] [nM],Kd [3] [nM],Kd [4] [nM],Kd [5] [nM],Compound,IC50 [1] [nM]
< 100,< 100,< 100,,C=C(C)c1ccncc1-n1cc(OCC)c(C(=O)Nc2ccc(Oc3ccnc4cc(OC)c(OC)cc34)cn2)n1 [Compound 202],< 100
100 to 1000,100 to 1000,100 to 1000,100 to 1000,CCOc1cn(CC2CCN(C)CC2)nc1C(=O)Nc1ccc(Oc2ccnc3cc(OC)c(OC)cc23)cc1F [Compound 219],
100 to 1000,100 to 1000,≥ 1000,≥ 1000,CCOc1cn(C2CCNC2)nc1C(=O)Nc1ccc(Oc2ccnc3cc(OC)c(OC)cc23)cn1 (stereo not drawn) [Compound 69],
